Experimental data taken from ChEMBL document CHEMBL1201862, “PubChem BioAssay data set” (2004).
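96-well plates; 48 h exposure; 5 concentrations. Endpoints by linear interpolation between flanking doses. Not reached: highest tested concentration assigned. The concentration for 50% growth inhibition is given as GI50.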 Activity calls are given as the source filed them. Cut-off read from the data, not from the text of the source: active = GI50 up to about 1.1 µM and inactive = higher.

What was measured:
Assay in all cases: NCI anticancer screen, dose series, 48 h
MDA-MB-231 = system: MDA-MB-231
HOP-92 = system: HOP-92
HCT-116 = system: HCT-116
SN12C = system: SN12C
NCI/ADR-RES = system: NCI/ADR-RES
OVCAR-8 = system: OVCAR-8
NCI-H460 = system: NCI-H460
SNB-19 = system: SNB-19
NCI-H23 = system: NCI-H23
U-251 = system: U-251
RXF 393 = system: RXF 393
TK-10 = system: TK-10
M14 = system: M14
OVCAR-5 = system: OVCAR-5
PC-3 = system: PC-3
EKVX = system: EKVX
MDA-MB-435 = system: MDA-MB-435
HCC 2998 = system: HCC 2998
HCT-15 = system: HCT-15

Structure (SMILES) | GI50 (MDA-MB-231) | GI50 (HOP-92) | GI50 (HCT-116) | GI50 (SN12C) | GI50 (NCI/ADR-RES) | GI50 (OVCAR-8) | GI50 (NCI-H460) | GI50 (SNB-19) | GI50 (NCI-H23) | GI50 (U-251) | GI50 (RXF 393) | GI50 (TK-10) | GI50 (M14) | GI50 (OVCAR-5) | GI50 (PC-3) | GI50 (EKVX) | GI50 (MDA-MB-435) | GI50 (HCC 2998) | GI50 (HCT-15) [µM]
CC1CNC(c2cccc(OCc3ccc(COc4cccc(C5=NC(C)CN5)c4)cc3)c2)=N1 (stereo unspecified) | 42.3 µM (inactive) | > 100 µM (inactive) | 23.6 µM (inactive) | 19.5 µM (inactive) | > 100 µM (inactive) | 56.8 µM (inactive) | 22.5 µM (inactive) | 68.1 µM (inactive) | 43.7 µM (inactive) | 35.6 µM (inactive) | 40.7 µM (inactive) | 27.1 µM (inactive) | > 100 µM (inactive) | 40.1 µM (inactive) | 28.9 µM (inactive) | 45.8 µM (inactive) | 45.5 µM (inactive) | 24 µM (inactive) | > 100
O=C1CC[C@@]2(O)[C@H]3Cc4ccc(-c5cccc(O)c5)c5c4[C@@]2(CCN3CC2CC2)[C@H]1O5 | 22.4 µM (inactive) | 25.7 µM (inactive) | 11.4 µM (inactive) | 17.6 µM (inactive) | 15.8 µM (inactive) | 19.6 µM (inactive) | 0.839 µM (active) | 4.3 µM (inactive) | 27 µM (inactive) | 8.38 µM (inactive) | 17.3 µM (inactive) | 1.01 µM (active) | 12.1 µM (inactive) | 13.6 µM (inactive) | 20.3 µM (inactive) | 11.6 µM (inactive) | 14 µM (inactive) | 16.4 µM (inactive) | 23.9
COC1=CC(=O)c2c(cc(COP(=O)(N(C)CCBr)N(C)CCBr)n2C)C1=O | 3.91 µM (inactive) | 0.69 µM (active) | 0.0542 µM (active) | < 0.0272 µM (active) | 1.24 µM (inactive) | 0.241 µM (active) | 0.0582 µM (active) | 0.798 µM (active) | < 0.0212 µM (active) | 0.0419 µM (active) | 0.229 µM (active) | 0.247 µM (active) | 0.614 µM (active) | 0.583 µM (active) | 6.82 µM (inactive) | 2.03 µM (inactive) | 1.09 µM (active) | 0.494 µM (active) | 0.491
CNCC(SC)c1ccc(O)c(O)c1 (stereo unspecified) | 28.2 µM (inactive) | 20.4 µM (inactive) | 20.7 µM (inactive) | 21.5 µM (inactive) | 34.9 µM (inactive) | 19.2 µM (inactive) | 16.7 µM (inactive) | > 100 µM (inactive) | 31 µM (inactive) | 61.1 µM (inactive) | 33.6 µM (inactive) | 19.1 µM (inactive) | 52.8 µM (inactive) | > 100 µM (inactive) | 69.2 µM (inactive) | 15.8 µM (inactive) | 32.1 µM (inactive) | 16.7 µM (inactive) | 30.8
N#Cc1nc(C#N)n(S(=O)(=O)c2ccccc2)c1NS(=O)(=O)c1ccccc1 | > 100 µM (inactive) | > 100 µM (inactive) | > 100 µM (inactive) | > 100 µM (inactive) | > 100 µM (inactive) | > 100 µM (inactive) | > 100 µM (inactive) | > 100 µM (inactive) | > 100 µM (inactive) | > 100 µM (inactive) | > 100 µM (inactive) | > 100 µM (inactive) | > 100 µM (inactive) | > 100 µM (inactive) | > 100 µM (inactive) | > 53.2 µM (inactive) | > 100 µM (inactive) | > 100 µM (inactive) | > 100
Cc1nc(N)sc1C(=O)Nc1nc[nH]n1 | > 100 µM (inactive) | > 100 µM (inactive) | > 100 µM (inactive) | > 100 µM (inactive) | > 100 µM (inactive) | > 100 µM (inactive) | > 100 µM (inactive) | > 100 µM (inactive) | > 100 µM (inactive) | > 100 µM (inactive) | > 100 µM (inactive) | > 100 µM (inactive) | > 100 µM (inactive) | > 100 µM (inactive) | > 100 µM (inactive) | > 100 µM (inactive) | > 100 µM (inactive) | > 100 µM (inactive) | > 100
Nc1ncn(C/C=C/c2ccccc2)c2ncnc1-2 | > 100 µM (inactive) | > 100 µM (inactive) | > 100 µM (inactive) | > 100 µM (inactive) | > 100 µM (inactive) | > 100 µM (inactive) | > 100 µM (inactive) | > 100 µM (inactive) | > 100 µM (inactive) | > 100 µM (inactive) | > 100 µM (inactive) | > 100 µM (inactive) | > 100 µM (inactive) | > 100 µM (inactive) | > 100 µM (inactive) | 32.4 µM (inactive) | > 100 µM (inactive) | > 100 µM (inactive) | > 100
CC(C)/C(Cl)=N\OC(NC(=O)P(=O)(c1ccccc1)c1ccccc1)(C(F)(F)F)C(F)(F)F | 16 µM (inactive) | 2.46 µM (inactive) | 9.16 µM (inactive) | 11.9 µM (inactive) | 12.8 µM (inactive) | 13 µM (inactive) | 15.2 µM (inactive) | 17.9 µM (inactive) | 2.99 µM (inactive) | 2.88 µM (inactive) | 14.6 µM (inactive) | 11.7 µM (inactive) | 4.14 µM (inactive) | 24.3 µM (inactive) | 12.6 µM (inactive) | 20 µM (inactive) | 16.3 µM (inactive) | 14.8 µM (inactive) | 15.9
CCCNC(=O)N1CC(CN2CCN(c3ccccc3)CC2)O/C1=N/C(=O)Nc1ccccc1 (stereo unspecified) | > 100 µM (inactive) | 89.3 µM (inactive) | > 100 µM (inactive) | > 100 µM (inactive) | 50.6 µM (inactive) |  | > 100 µM (inactive) | > 100 µM (inactive) | 73.8 µM (inactive) | > 100 µM (inactive) | 43.3 µM (inactive) | 82.4 µM (inactive) | 65.9 µM (inactive) | > 100 µM (inactive) | 45.5 µM (inactive) | 71.8 µM (inactive) | 84.5 µM (inactive) | > 100 µM (inactive) | 
Cc1cc(S(=O)(=O)/N=C(\NN)Nc2ccc(Cl)cc2)c(S)cc1Cl | 20.4 µM (inactive) | 34.4 µM (inactive) | 3.03 µM (inactive) | 22.8 µM (inactive) | 2.71 µM (inactive) | 12.4 µM (inactive) | 4.46 µM (inactive) | 11.5 µM (inactive) |  | 6.87 µM (inactive) | 28.6 µM (inactive) | 21.3 µM (inactive) | 8.65 µM (inactive) | 1.81 µM (inactive) | 21.2 µM (inactive) | 5.16 µM (inactive) | 8.02 µM (inactive) | 11.2 µM (inactive) | 1.14
CC(=O)OCC1OC(NC(=S)Nn2c(=O)[nH]c3ccccc3c2=O)C(OC(C)=O)C(OC(C)=O)C1OC(C)=O (stereo unspecified) | > 100 µM (inactive) | > 100 µM (inactive) | > 100 µM (inactive) | > 100 µM (inactive) | > 100 µM (inactive) | > 100 µM (inactive) | > 100 µM (inactive) | > 100 µM (inactive) | > 100 µM (inactive) | > 100 µM (inactive) | > 100 µM (inactive) |  | > 100 µM (inactive) | > 100 µM (inactive) | > 100 µM (inactive) | > 100 µM (inactive) | > 100 µM (inactive) | > 100 µM (inactive) | > 100
N/N=C1/CCCc2nonc21 | > 100 µM (inactive) | > 100 µM (inactive) | > 100 µM (inactive) | > 100 µM (inactive) | > 100 µM (inactive) | > 100 µM (inactive) | > 100 µM (inactive) |  | > 100 µM (inactive) | > 100 µM (inactive) | > 100 µM (inactive) | > 100 µM (inactive) | > 100 µM (inactive) | > 100 µM (inactive) | > 100 µM (inactive) | > 100 µM (inactive) | > 100 µM (inactive) | > 100 µM (inactive) | > 100
C/C(=C\CNc1nc(Cl)nc2[nH]cnc12)CO | > 100 µM (inactive) | > 100 µM (inactive) | > 100 µM (inactive) | > 100 µM (inactive) | > 100 µM (inactive) | > 100 µM (inactive) | > 100 µM (inactive) | > 100 µM (inactive) | > 100 µM (inactive) |  | > 100 µM (inactive) | > 100 µM (inactive) | > 100 µM (inactive) | > 100 µM (inactive) | > 100 µM (inactive) | > 100 µM (inactive) | > 100 µM (inactive) | > 100 µM (inactive) | 
c1ccc(-c2csc3c2-n2cccc2C3N2CCCC2)cc1 (stereo unspecified) | 35.6 µM (inactive) | 21 µM (inactive) | 43.8 µM (inactive) | > 100 µM (inactive) | > 100 µM (inactive) | 26.8 µM (inactive) | 44.4 µM (inactive) | 19.6 µM (inactive) | 20.9 µM (inactive) | 11.1 µM (inactive) | > 100 µM (inactive) | 27 µM (inactive) |  | 20.2 µM (inactive) | 32.7 µM (inactive) | 13.8 µM (inactive) | 33.7 µM (inactive) | 26.1 µM (inactive) | 93.8
O=C(/C=C/c1ccc(O)c(O)c1O)OCCc1ccccc1 | 24.9 µM (inactive) | 56.1 µM (inactive) | 13.5 µM (inactive) | 18.4 µM (inactive) | 29.8 µM (inactive) |  | 21.6 µM (inactive) | 49.9 µM (inactive) | 22.9 µM (inactive) | 26.1 µM (inactive) | 36.1 µM (inactive) | 83.2 µM (inactive) | 20 µM (inactive) | 41.9 µM (inactive) | 48.9 µM (inactive) | > 100 µM (inactive) | 17.5 µM (inactive) | > 100 µM (inactive) | 23.4
